Laboratory results: US6376497B1, “Antifungal azole derivatives having a fluorinated vinyl group and process for preparing same” (Korea Research Institute of Chemical Technology, priority 1999, dated 2002)
Values after ≈ are worked out from the molar mass of the structure shown.

How the values were obtained:
Experiment in all cases: In vitro antifungal activity, microbroth dilution MIC
Type in all cases: cell-based
[1] = system: Aspergillus niger A. 16404; conditions: 4 to 48 hours; for Minimal inhibitory concentration(MIC), A. niger A. 16404: RPMI-1640, 35° C., no growth observed; for Minimal inhibitory concentration (MIC): A. niger A. 16404, RPMI-1640, 35° C.
How it was run: (§1)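 Broth microdilution adapted from NCCLS M27, in RPMI-1640 with 0.165 M MOPS, pH 7.0. Yeast or mould inoculum at 2×10^3 CFU/ml was mixed 1:1 with DMSO-derived compound solutions (200 to 0.10 μg/ml before mixing) and incubated at 35 °C for 4 to 48 h. MIC was the concentration showing no growth.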

[2] = system: Candida pseudotropicalis K. 11658; conditions: 4 to 48 hours; for Minimal inhibitory concentration(MIC), C. pseudotropicalis K. 11658: RPMI-1640, 35° C., no growth observed; for Minimal inhibitory concentration (MIC): C. pseudotropicalis K. 11658, RPMI-1640, 35° C.
How it was run: as §1

[3] = system: Candida albicans A. 10231; conditions: 4 to 48 hours; for Minimal inhibitory concentration (MIC): C. albicans A. 10231, RPMI-1640, 35° C.; for Minimal inhibitory concentration(MIC), C. albicans A. 10231: RPMI-1640, 35° C., no growth observed
How it was run: as §1

[4] = system: Torulopsis glabrata B. 16205; conditions: 4 to 48 hours; for Minimal inhibitory concentration(MIC), T. glabrata B. 16205: RPMI-1640, 35° C., no growth observed; for Minimal inhibitory concentration (MIC): T. glabrata B. 16205, RPMI-1640, 35° C.
How it was run: as §1

[5] = system: Cryptococcus neoformans A. 34144; conditions: 4 to 48 hours; for Minimal inhibitory concentration(MIC), Cry. neoformans A. 34144: RPMI-1640, 35° C., no growth observed; for Minimal inhibitory concentration (MIC): Cry. neoformans A. 34144, RPMI-1640, 35° C.
How it was run: as §1

Candida krusei K. 11655 = conditions: 4 to 48 hours; for Minimal inhibitory concentration(MIC), C. krusei K. 11655: RPMI-1640, 35° C., no growth observed; for Minimal inhibitory concentration (MIC): C. krusei K. 11655, RPMI-1640, 35° C.
How it was run: as §1

[6] = system: Candida tropicalis A. 13803; conditions: 4 to 48 hours; for Minimal inhibitory concentration(MIC), C. tropicalis A. 13803: RPMI-1640, 35° C., no growth observed; for Minimal inhibitory concentration (MIC): C. tropicalis A. 13803, RPMI-1640, 35° C.
How it was run: as §1

[7] = system: Cryptococcus neoformans IFM. 40092; conditions: 4 to 48 hours; for Minimal inhibitory concentration(MIC), Cry. neoformans IFM. 40092: RPMI-1640, 35° C., no growth observed; for Minimal inhibitory concentration (MIC): Cry. neoformans IFM. 40092, RPMI-1640, 35° C.
How it was run: as §1

[8] = system: Candida albicans IFO. 1385; conditions: 4 to 48 hours; for Minimal inhibitory concentration(MIC), C. albicans IFO. 1385: RPMI-1640, 35° C., no growth observed; for Minimal inhibitory concentration (MIC): C. albicans IFO. 1385, RPMI-1640, 35° C.
How it was run: as §1

[9] = system: Candida parapsitosis A. 7330; conditions: 4 to 48 hours; for Minimal inhibitory concentration(MIC), C. parapsitosis A. 7330: RPMI-1640, 35° C., no growth observed; for Minimal inhibitory concentration (MIC): C. parapsitosis A. 7330, RPMI-1640, 35° C.
How it was run: as §1

[10] = system: Trichophyton mentagrophytes B. 32663; conditions: 4 to 48 hours; for Minimal inhibitory concentration(MIC), T. mentagrophytes B. 32663: RPMI-1640, 35° C., no growth observed; for Minimal inhibitory concentration (MIC): T. mentagrophytes B. 32663, RPMI-1640, 35° C.
How it was run: as §1

[11] = system: Cryptococcus neoformans B. 42419; conditions: 4 to 48 hours; for Minimal inhibitory concentration(MIC), Cry. neoformans B. 42419: RPMI-1640, 35° C., no growth observed; for Minimal inhibitory concentration (MIC): Cry. neoformans B. 42419, RPMI-1640, 35° C.
How it was run: as §1

[12] = system: Trichophyton mentagrophytes A. 9129; conditions: 4 to 48 hours; for Minimal inhibitory concentration(MIC), T. mentagrophytes A. 9129: RPMI-1640, 35° C., no growth observed; for Minimal inhibitory concentration (MIC): T. mentagrophytes A. 9129, RPMI-1640, 35° C.
How it was run: as §1

[13] = system: Aspergillus furnigatus B. 19119; conditions: 4 to 48 hours; for Minimal inhibitory concentration(MIC), A furnigatus B. 19119: RPMI-1640, 35° C., no growth observed; for Minimal inhibitory concentration (MIC): A furnigatus B. 19119, RPMI-1640, 35° C.
How it was run: as §1

Candida albicans C1-2 = conditions: 4 to 48 hours; for Minimal inhibitory concentration (MIC): C. albicans C1-2, RPMI-1640, 35° C.; for Minimal inhibitory concentration(MIC), C. albicans C1-2: RPMI-1640, 35° C., no growth observed
How it was run: as §1

| SMILES | Minimal inhibitory concentration(MIC), A. niger A. 16404 [1] [µg/mL] | Minimal inhibitory concentration(MIC), C. pseudotropicalis K. 11658 [2] [µg/mL] | Minimal inhibitory concentration (MIC) [3] [µg/mL] | Minimal inhibitory concentration(MIC), T. glabrata B. 16205 [4] [µg/mL] | Minimal inhibitory concentration(MIC), Cry. neoformans A. 34144 [5] [µg/mL] | Minimal inhibitory concentration(MIC), C. krusei K. 11655 (Candida krusei K. 11655) [µg/mL] | Minimal inhibitory concentration(MIC), C. tropicalis A. 13803 [6] [µg/mL] | Minimal inhibitory concentration(MIC), Cry. neoformans IFM. 40092 [7] [µg/mL] | Minimal inhibitory concentration(MIC), C. albicans IFO. 1385 [8] [µg/mL] | Minimal inhibitory concentration(MIC), C. parapsitosis A. 7330 [9] [µg/mL] | Minimal inhibitory concentration(MIC), T. mentagrophytes B. 32663 [10] [µg/mL] | Minimal inhibitory concentration(MIC), Cry. neoformans B. 42419 [11] [µg/mL] | Minimal inhibitory concentration(MIC), T. mentagrophytes A. 9129 [12] [µg/mL] | Minimal inhibitory concentration(MIC), A furnigatus B. 19119 [13] [µg/mL] | Minimal inhibitory concentration (MIC) (Candida albicans C1-2) [µg/mL] | Minimal inhibitory concentration (MIC) [1] [µg/mL] | Minimal inhibitory concentration (MIC) [2] [µg/mL] | Minimal inhibitory concentration (MIC) [4] [µg/mL] | Minimal inhibitory concentration (MIC) [5] [µg/mL] | Minimal inhibitory concentration (MIC) (Candida krusei K. 11655) [µg/mL] | other results |
| --- | --- | --- | --- | --- | --- | --- | --- | --- | --- | --- | --- | --- | --- | --- | --- | --- | --- | --- | --- | --- | --- |
| FC(OCC1COC(Cn2cncn2)(c2ccc(Cl)cc2Cl)O1)=C(c1ccccc1)C(F)(F)F (mixture of isomers) [Ex. 79] | >100 | >100 | >100 | >100 | >100 | >100 | >100 | 1.56 | >100 | >100 | >100 | >100 | >100 | >100 | >100 |  |  |  |  |  |  |
| FC(OCC1COC(Cn2ccnc2)(c2ccc(Cl)cc2Cl)O1)=C(c1ccc(Oc2ccccc2)cc1)C(F)(F)F (stereo not drawn) [Ex. 29] |  |  | >100 |  |  |  |  |  |  |  |  |  |  |  | >100 | 100 (≈ 164 µM) | >100 | 12.5 (≈ 20.5 µM) | 1.56 (≈ 2.56 µM) | >100 | Minimal inhibitory concentration (MIC) [6]: >100 µg/mL; Minimal inhibitory concentration (MIC) [7]: 0.20 µg/mL (≈ 0.328 µM); Minimal inhibitory concentration (MIC) [8]: 1.56 µg/mL (≈ 2.56 µM); Minimal inhibitory concentration (MIC) [9]: >100 µg/mL; Minimal inhibitory concentration (MIC) [10]: 3.13 µg/mL (≈ 5.14 µM); Minimal inhibitory concentration (MIC) [11]: 1.56 µg/mL (≈ 2.56 µM); Minimal inhibitory concentration (MIC) [12]: 6.25 µg/mL (≈ 10.3 µM); Minimal inhibitory concentration (MIC) [13]: 6.25 µg/mL (≈ 10.3 µM) |
| Cc1ccc(C(=C(F)N2CCN(c3ccc(OCC4COC(Cn5ccnc5)(c5ccc(Cl)cc5Cl)O4)cc3)CC2)C(F)(F)F)cc1C (mixture of isomers) [Ex. 129] | >100 | 1.56 |  | >100 | 0.78 | 3.13 | >100 | 0.39 | 3.13 | 3.13 | 3.13 | 0.78 | 12.5 | >100 |  |  |  |  |  |  | Minimal inhibitory concentration(MIC), C. albicans A. 10231 [3]: >100 µg/mL; Minimal inhibitory concentration(MIC), C. albicans C1-2 (Candida albicans C1-2): >100 µg/mL |
| CCc1ccc(C=C(F)OCC2COC(Cn3ccnc3)(c3ccc(F)cc3F)O2)cc1 (mixture of isomers) [Ex. 39] |  |  | 12.5 |  |  |  |  |  |  |  |  |  |  |  | 12.5 | 50.0 | 12.5 | 6.25 | 1.56 | 25.0 | Minimal inhibitory concentration (MIC) [6]: 25.0 µg/mL; Minimal inhibitory concentration (MIC) [7]: 0.20 µg/mL; Minimal inhibitory concentration (MIC) [8]: 0.39 µg/mL; Minimal inhibitory concentration (MIC) [9]: 12.5 µg/mL; Minimal inhibitory concentration (MIC) [10]: 1.56 µg/mL; Minimal inhibitory concentration (MIC) [11]: 1.56 µg/mL; Minimal inhibitory concentration (MIC) [12]: 6.25 µg/mL; Minimal inhibitory concentration (MIC) [13]: 12.5 µg/mL |
| FC(=Cc1cccc2ccccc12)OCC1COC(Cn2ccnc2)(c2ccc(F)cc2F)O1 (mixture of isomers) [Ex. 51] |  |  | 12.5 |  |  |  |  |  |  |  |  |  |  |  | 12.5 | 12.5 | 25.0 | 6.25 | 1.56 | 50.0 | Minimal inhibitory concentration (MIC) [6]: 25.0 µg/mL; Minimal inhibitory concentration (MIC) [7]: 0.20 µg/mL; Minimal inhibitory concentration (MIC) [8]: 0.39 µg/mL; Minimal inhibitory concentration (MIC) [9]: >100 µg/mL; Minimal inhibitory concentration (MIC) [10]: 0.78 µg/mL; Minimal inhibitory concentration (MIC) [11]: 1.56 µg/mL; Minimal inhibitory concentration (MIC) [12]: 1.56 µg/mL; Minimal inhibitory concentration (MIC) [13]: 3.13 µg/mL |
| Cc1ccc(C=C(F)OCC2COC(Cn3cncn3)(c3ccc(Cl)cc3Cl)O2)cc1 (mixture of isomers) [Ex. 71] | 100 | 25.0 | 50.0 | 25.0 | 1.56 | 100 | 100 | 0.20 | 6.25 | 100 | 6.25 | 1.56 | 6.25 | 100 | 50.0 |  |  |  |  |  |  |
| COc1cccc(C=C(F)OCC2COC(Cn3ccnc3)(c3ccc(F)cc3F)O2)c1 (mixture of isomers) [Ex. 43] |  |  | 25.0 |  |  |  |  |  |  |  |  |  |  |  | 25.0 | >100 | 6.25 | 6.25 | 1.56 | 12.5 | Minimal inhibitory concentration (MIC) [6]: 50.0 µg/mL; Minimal inhibitory concentration (MIC) [7]: 0.39 µg/mL; Minimal inhibitory concentration (MIC) [8]: 0.78 µg/mL; Minimal inhibitory concentration (MIC) [9]: 12.5 µg/mL; Minimal inhibitory concentration (MIC) [10]: 1.56 µg/mL; Minimal inhibitory concentration (MIC) [11]: 1.56 µg/mL; Minimal inhibitory concentration (MIC) [12]: 6.25 µg/mL; Minimal inhibitory concentration (MIC) [13]: 12.5 µg/mL |
| COc1ccc(C(=C(F)N2CCN(c3ccc(OCC4COC(Cn5ccnc5)(c5ccc(Cl)cc5Cl)O4)cc3)CC2)C(F)(F)F)cc1 (mixture of isomers) [Ex. 131] | >100 | 1.56 |  | >100 | 0.39 | 1.56 | >100 | 0.20 | 1.56 | 3.13 | 1.56 | 0.78 | 6.25 | >100 |  |  |  |  |  |  | Minimal inhibitory concentration(MIC), C. albicans A. 10231 [3]: >100 µg/mL; Minimal inhibitory concentration(MIC), C. albicans C1-2 (Candida albicans C1-2): >100 µg/mL |
